Measurements published in PubChem BioAssay (NCI).
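The compound was tested at five concentrations on cells cultured in 96-well plates, with a 48-hour exposure period. Here, GI50 denotes the concentration required for 50% inhibition of growth. Definition used: TGI = concentration required for complete inhibition of growth.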

How the values were obtained:
Experiment in all cases: DTP human tumour cell line panel, 48 h
HCT-116 colon = system: HCT-116 colon
OVCAR-5 ovarian = system: OVCAR-5 ovarian
SNB-75 CNS = system: SNB-75 CNS
OVCAR-8 ovarian = system: OVCAR-8 ovarian
UACC-257 melanoma = system: UACC-257 melanoma
SF-268 CNS = system: SF-268 CNS
COLO 205 colon = system: COLO 205 colon
RXF 393 renal = system: RXF 393 renal
SF-539 CNS = system: SF-539 CNS
TK-10 renal = system: TK-10 renal
HCT-15 colon = system: HCT-15 colon
SK-MEL-5 melanoma = system: SK-MEL-5 melanoma
OVCAR-4 ovarian = system: OVCAR-4 ovarian
M14 melanoma = system: M14 melanoma
IGROV1 ovarian = system: IGROV1 ovarian
SNB-19 CNS = system: SNB-19 CNS
NCI-H522 lung = system: NCI-H522 lung
HOP-62 NSCLC = system: HOP-62 NSCLC
MOLT-4 leukemia = system: MOLT-4 leukemia
HS 578T breast = system: HS 578T breast
KM12 colon = system: KM12 colon
SK-MEL-28 melanoma = system: SK-MEL-28 melanoma
K-562 leukemia = system: K-562 leukemia
RPMI-8226 leukemia = system: RPMI-8226 leukemia
UO-31 renal = system: UO-31 renal
SK-MEL-2 melanoma = system: SK-MEL-2 melanoma
U251 CNS = system: U251 CNS
NCI-H23 lung = system: NCI-H23 lung
SW-620 colon = system: SW-620 colon
A549 NSCLC = system: A549 NSCLC
PC-3 prostate = system: PC-3 prostate
MDA-MB-231 breast = system: MDA-MB-231 breast
SR leukemia = system: SR leukemia
HOP-92 NSCLC = system: HOP-92 NSCLC
EKVX NSCLC = system: EKVX NSCLC
ACHN renal = system: ACHN renal
NCI-H460 lung = system: NCI-H460 lung
NCI-H226 lung = system: NCI-H226 lung
MCF7 breast = system: MCF7 breast
HL-60(TB) leukemia = system: HL-60(TB) leukemia
NCI/ADR-RES ovarian = system: NCI/ADR-RES ovarian
DU-145 prostate = system: DU-145 prostate
SK-OV-3 ovarian = system: SK-OV-3 ovarian
786-0 renal = system: 786-0 renal
HCC-2998 colon = system: HCC-2998 colon
SN12C renal = system: SN12C renal
T-47D breast = system: T-47D breast
MALME-3M melanoma = system: MALME-3M melanoma
UACC-62 melanoma = system: UACC-62 melanoma
A498 renal = system: A498 renal
HT29 colon = system: HT29 colon
BT-549 breast = system: BT-549 breast
MDA-MB-435 = system: MDA-MB-435
CAKI-1 renal = system: CAKI-1 renal
SF-295 CNS = system: SF-295 CNS
OVCAR-3 ovarian = system: OVCAR-3 ovarian
CCRF-CEM leukemia = system: CCRF-CEM leukemia
LOX IMVI melanoma = system: LOX IMVI melanoma

O=C(CSCC(=O)N/N=C/c1ccc(F)cc1)N/N=C/c1ccc(F)cc1
TGI (HCT-116 colon): > 100 µM | TGI (OVCAR-5 ovarian): > 100 µM | TGI (SNB-75 CNS): > 100 µM | TGI (OVCAR-8 ovarian): > 100 µM | TGI (UACC-257 melanoma): > 100 µM | TGI (SF-268 CNS): > 100 µM | TGI (COLO 205 colon): > 100 µM | TGI (RXF 393 renal): > 100 µM | TGI (SF-539 CNS): > 100 µM | TGI (TK-10 renal): > 100 µM | TGI (HCT-15 colon): > 100 µM | TGI (SK-MEL-5 melanoma): > 100 µM | TGI (OVCAR-4 ovarian): > 100 µM | TGI (M14 melanoma): > 100 µM | TGI (IGROV1 ovarian): > 100 µM | TGI (SNB-19 CNS): > 100 µM | TGI (NCI-H522 lung): > 100 µM | TGI (HOP-62 NSCLC): > 100 µM | TGI (MOLT-4 leukemia): 76.9 µM | TGI (HS 578T breast): > 100 µM | TGI (KM12 colon): > 100 µM | TGI (SK-MEL-28 melanoma): > 100 µM | TGI (K-562 leukemia): > 100 µM | TGI (RPMI-8226 leukemia): > 100 µM | TGI (UO-31 renal): > 100 µM | TGI (SK-MEL-2 melanoma): > 100 µM | TGI (U251 CNS): > 100 µM | TGI (NCI-H23 lung): > 100 µM | TGI (SW-620 colon): > 100 µM | TGI (A549 NSCLC): > 100 µM | TGI (PC-3 prostate): > 100 µM | TGI (MDA-MB-231 breast): > 100 µM | TGI (SR leukemia): > 100 µM | TGI (HOP-92 NSCLC): > 100 µM | TGI (EKVX NSCLC): > 100 µM | TGI (ACHN renal): > 100 µM | TGI (NCI-H460 lung): > 100 µM | TGI (NCI-H226 lung): > 100 µM | TGI (MCF7 breast): > 100 µM | TGI (HL-60(TB) leukemia): > 100 µM | TGI (NCI/ADR-RES ovarian): > 100 µM | TGI (DU-145 prostate): > 100 µM | TGI (SK-OV-3 ovarian): > 100 µM | TGI (786-0 renal): > 100 µM | TGI (HCC-2998 colon): > 100 µM | TGI (SN12C renal): > 100 µM | TGI (T-47D breast): > 100 µM | TGI (MALME-3M melanoma): > 100 µM | TGI (UACC-62 melanoma): > 100 µM | TGI (A498 renal): > 100 µM | TGI (HT29 colon): > 100 µM

CC(=O)Nc1ccc(S(=O)(=O)/N=c2/sc(S(N)(=O)=O)nn2C)cc1
TGI (HCT-116 colon): > 100 µM | TGI (OVCAR-5 ovarian): > 100 µM | TGI (SNB-75 CNS): > 100 µM | TGI (OVCAR-8 ovarian): > 100 µM | TGI (SF-268 CNS): > 100 µM | TGI (COLO 205 colon): > 100 µM | TGI (RXF 393 renal): > 100 µM | TGI (SF-539 CNS): > 100 µM | TGI (TK-10 renal): > 100 µM | TGI (HCT-15 colon): > 100 µM | TGI (OVCAR-4 ovarian): > 100 µM | TGI (M14 melanoma): > 100 µM | TGI (SNB-19 CNS): > 100 µM | TGI (NCI-H522 lung): > 100 µM | TGI (HOP-62 NSCLC): > 100 µM | TGI (MOLT-4 leukemia): > 100 µM | TGI (KM12 colon): > 100 µM | TGI (SK-MEL-28 melanoma): > 100 µM | TGI (RPMI-8226 leukemia): > 100 µM | TGI (UO-31 renal): > 100 µM | TGI (SK-MEL-2 melanoma): > 100 µM | TGI (U251 CNS): > 100 µM | TGI (NCI-H23 lung): > 100 µM | TGI (SW-620 colon): > 100 µM | TGI (A549 NSCLC): > 100 µM | TGI (BT-549 breast): > 100 µM | TGI (PC-3 prostate): > 100 µM | TGI (MDA-MB-231 breast): > 100 µM | TGI (MDA-MB-435): > 100 µM | TGI (SR leukemia): > 100 µM | TGI (HOP-92 NSCLC): > 100 µM | TGI (EKVX NSCLC): > 100 µM | TGI (ACHN renal): > 100 µM | TGI (CAKI-1 renal): > 100 µM | TGI (NCI-H460 lung): > 100 µM | TGI (NCI-H226 lung): > 100 µM | TGI (HL-60(TB) leukemia): > 100 µM | TGI (SF-295 CNS): > 100 µM | TGI (NCI/ADR-RES ovarian): > 100 µM | TGI (DU-145 prostate): > 100 µM | TGI (SK-OV-3 ovarian): > 100 µM | TGI (OVCAR-3 ovarian): > 100 µM | TGI (786-0 renal): > 100 µM | TGI (HCC-2998 colon): > 100 µM | TGI (MALME-3M melanoma): > 100 µM | TGI (UACC-62 melanoma): > 100 µM | TGI (A498 renal): > 100 µM | TGI (HT29 colon): > 100 µM

O=C1c2cc(Br)ccc2-c2c1c1ccccc1c(=O)n2CCCCl
GI50 (HCT-116 colon): 3.05 µM | TGI (HCT-116 colon): 17.1 µM | GI50 (OVCAR-8 ovarian): 15.9 µM | TGI (OVCAR-8 ovarian): 65.8 µM | GI50 (UACC-257 melanoma): 17.7 µM | TGI (UACC-257 melanoma): 95.7 µM | GI50 (SF-268 CNS): 41.2 µM | TGI (SF-268 CNS): > 100 µM | GI50 (SF-539 CNS): 25.1 µM | TGI (SF-539 CNS): 68.5 µM | GI50 (HCT-15 colon): 26.8 µM | TGI (HCT-15 colon): > 100 µM | GI50 (SK-MEL-5 melanoma): 14.4 µM | TGI (SK-MEL-5 melanoma): 77.7 µM | GI50 (M14 melanoma): 13.2 µM | TGI (M14 melanoma): > 100 µM | GI50 (SNB-19 CNS): 72.2 µM | TGI (SNB-19 CNS): > 100 µM | GI50 (NCI-H522 lung): 39.8 µM | TGI (NCI-H522 lung): > 100 µM | GI50 (HOP-62 NSCLC): 3.34 µM | TGI (HOP-62 NSCLC): 17.8 µM | GI50 (MOLT-4 leukemia): 3.07 µM | TGI (MOLT-4 leukemia): 8.6 µM | GI50 (HS 578T breast): 27.4 µM | TGI (HS 578T breast): 90.7 µM | GI50 (KM12 colon): 16.6 µM | TGI (KM12 colon): > 100 µM | GI50 (K-562 leukemia): 34.8 µM | TGI (K-562 leukemia): > 100 µM | GI50 (RPMI-8226 leukemia): 41.6 µM | TGI (RPMI-8226 leukemia): > 100 µM | GI50 (UO-31 renal): 41 µM | TGI (UO-31 renal): > 100 µM | GI50 (SK-MEL-2 melanoma): 76.8 µM | TGI (SK-MEL-2 melanoma): > 100 µM | GI50 (U251 CNS): 13.5 µM | TGI (U251 CNS): 36.7 µM | GI50 (NCI-H23 lung): 13 µM | TGI (NCI-H23 lung): 40.9 µM | GI50 (SW-620 colon): 40.9 µM | TGI (SW-620 colon): > 100 µM | GI50 (A549 NSCLC): 3.99 µM | TGI (A549 NSCLC): 36.3 µM | GI50 (BT-549 breast): 44.5 µM | TGI (BT-549 breast): > 100 µM | GI50 (PC-3 prostate): 18.3 µM | TGI (PC-3 prostate): > 100 µM | GI50 (MDA-MB-231 breast): 13.1 µM | TGI (MDA-MB-231 breast): 37.1 µM | GI50 (MDA-MB-435): 29.4 µM | TGI (MDA-MB-435): > 100 µM | GI50 (HOP-92 NSCLC): 12.7 µM | TGI (HOP-92 NSCLC): 46.2 µM | GI50 (EKVX NSCLC): 94.3 µM | TGI (EKVX NSCLC): > 100 µM | GI50 (ACHN renal): 9.19 µM | TGI (ACHN renal): 30.8 µM | GI50 (CAKI-1 renal): 2.84 µM | TGI (CAKI-1 renal): 20.6 µM | GI50 (NCI-H460 lung): 7.54 µM | TGI (NCI-H460 lung): > 100 µM | GI50 (CCRF-CEM leukemia): 8.51 µM | TGI (CCRF-CEM leukemia): > 100 µM | GI50 (MCF7 breast): 1.61 µM | TGI (MCF7 breast): > 100 µM | GI50 (SF-295 CNS): 4.29 µM | TGI (SF-295 CNS): 21.4 µM | GI50 (NCI/ADR-RES ovarian): 15.2 µM | TGI (NCI/ADR-RES ovarian): 60.1 µM | GI50 (DU-145 prostate): 64.7 µM | TGI (DU-145 prostate): > 100 µM | GI50 (SK-OV-3 ovarian): 29.3 µM | TGI (SK-OV-3 ovarian): > 100 µM | GI50 (LOX IMVI melanoma): 8.56 µM | TGI (LOX IMVI melanoma): 61.3 µM | GI50 (OVCAR-3 ovarian): 0.964 µM | TGI (OVCAR-3 ovarian): 7.91 µM | GI50 (786-0 renal): 7.95 µM | TGI (786-0 renal): 26.2 µM | GI50 (HCC-2998 colon): 14.1 µM | TGI (HCC-2998 colon): 71.5 µM | GI50 (SN12C renal): 14.1 µM | TGI (SN12C renal): 55.9 µM | GI50 (T-47D breast): > 100 µM | TGI (T-47D breast): > 100 µM | GI50 (UACC-62 melanoma): 5.65 µM | TGI (UACC-62 melanoma): 22.3 µM
